Patent US20220226484A1, “THERAPEUTIC PEPTIDES” (COHBAR, INC., priority 2019, published 2022)
Positions of bridges follow the written chain, without caps; N, C: chain ends. Non-standard residues stand in square brackets, D forms with d. Primed or numbered codes have the meaning given here. Chains are numbered I, II in the order given. No end group written: not given here. PEG12′ = not defined here; Nle = CCCC[C@H](N)C(=O)O

Tests used:
[1] = tested on: SH-SY5Y Neuroblastoma Cells; assay: ATP levels (CellTiter-Glo); assay type: cell-based, human; settings: peptide 10 μM, 18-20 hours, relative to 0.1% DMSO treated control
Procedure: The effect of the peptides on cellular metabolism can be assessed using an assay of ATP levels in cultured cells such as human neuroblastoma cells. Peptides were initially prepared as 10 mM stock in DMSO and used at a final concentration of 10 μM (0.1% DMSO). […] CellTiter-Glo® Assay kit was purchased from Promega. SH-SY5Y human bone marrow neuroblastoma cell line was purchased from American Type Culture Collection (Manassas, Va.) and licensed from Memorial Sloan-Kettering Cancer Center (New York, N.Y.). SH-SY5Y cells were grown in DMEM/F12 medium supplemented with 10% FBS with 100 IU/ml penicillin and 100 μg/ml streptomycin. Cultures were maintained at 37° C. in a humidified atmosphere of 5% CO2/95% air. SH-SY5Y cells were seeded at 30,000 cells per well on 96-well plates. […] ATP levels were determined using a CellTiter-Glo Assay kit (Promega) according to the manufacturer's instructions. Luminescence for each sample well on the plate was measured using a Cytation 3 plate reader (BioTek, Winooski, Vt.). Activity was calculated relative to 0.1% DMSO treated control. The relative standard deviation of the result for the 0.1% DMSO treated control was <5%.

H4IIE Rat Hepatoma Cells = assay: Insulin-dependent effect on glucose production by cultured rat liver cells; assay type: cell-based; settings: 24 hour; for Glucose Levels, MEAN % Control, +Insulin: peptide 10 μM + insulin 800 pM, percent of insulin (800 pM); for Glucose Levels, MEAN % Control, −Insulin: peptide 10 μM alone, percent of untreated control cells
Procedure: The effect of the peptides on glucose production was assessed in the absence and presence of insulin using an assay of glucose levels in cultured cells such as rat hepatocytes. Peptides were initially prepared as 10 mM stock in DMSO and used at a final concentration of 10 μM (0.1% DMSO). Insulin (800 pM) was used as a partial inhibitor of glucose production. H4-IIE cells purchased from ATCC (Manassas, Va.) were seeded at 100,000 cells/well in standard medium (DMEM/high glucose+10% FBS+1× Glutamax+antibiotics) on 96-well plates and allowed to adhere overnight at 37° C. in a humidified atmosphere of 5% CO2/95% air. Approximately 24 h after seeding, the medium was removed, cells rinsed with glucose free DMEM, and Glucose Production Medium (glucose free DMEM+2 mM sodium pyruvate+10 mM sodium lactate) was added. The cultures were placed at 37° C. in a humidified atmosphere of 5% CO2/95% air overnight. The next morning, the medium was removed and fresh Glucose Production Medium containing compounds was added. Insulin at 800 pM was added to control wells. Peptides (10 μM) in the absence or presence of insulin (800 pM) were added to test wells. Cells in the presence of compounds were placed at 37° C. in a humidified atmosphere of 5% CO2/95% air overnight. After 24 hour incubation, conditioned medium from each well was transferred to a fresh 96-well plate for quantitation of glucose content. Quantitation of glucose levels was determined using an Amplex Red Glucose Assay kit (Abacm; Cambridge, Mass.) according to the manufacturer's instructions using a Cytation 3 plate reader at 570 nm (BioTek, Winooski, Vt.). Absorbance values were expressed as a percent of untreated control cells (maximum glucose production) for peptide alone samples or insulin (800 pM) for peptides in the presence of insulin (800 pM. Glucose levels for insulin (800 pM) treatment were ˜80-90% of the untreated control values. The results are reported in Table 15.

[2] = tested on: A172 human brain glioblastoma cell line; assay: Caspase 3/7 activity (Caspase-Glo 3/7 Assay); assay type: cell-based; settings: peptide 10 μM, 18-20 hours, relative to 0.1% DMSO control
Procedure: The effect of the peptides on cell death/survival can be assessed using a caspase-3/7 assay in cultured cells. Peptides were dissolved at 10 mM in DMSO as stock solutions for use at a final concentration of 10 μM. […] Caspase-Glo 3/7 Assay Reagent was purchased from Promega (Madison, Wis.). A172 human brain glioblastoma cell line was purchased from American Type Culture Collection (Manassas, Va.). A172 cells were grown in DMEM supplemented with 10% FBS with 100 IU/ml penicillin and 100 μg/ml streptomycin. Cultures were maintained at 37° C. in a humidified atmosphere of 5% CO2/95% air. A172 cells were seeded at 8,000 cells per well on 96-well plates. […] Caspase 3/7 activity was determined using a Caspase-Glo 3/7 Assay kit (Promega) according to the manufacturer's instructions. Luminescence for each sample well on the plate was measured using a Cytation 3 plate reader (BioTek, Winooski, Vt.). Activity was calculated relative to 0.1% DMSO control.

A172 Cells = assay: Cell viability, PrestoBlue Assay; assay type: cell-based, human; settings: peptide 10 μM, 18-20 hours, relative to 0.1% DMSO control
Procedure: The effect of the peptides on cell viability can be assessed in cultured cells using suitable assay of viability such as the PrestoBlue® assay (Thermo Fisher Scientific, Waltham, Mass.). Peptides were initially prepared as 10 mM stock in DMSO and tested at a final concentration of 10 μM (0.1% DMSO). […] PrestoBlue Assay Reagent was purchased from Thermo Fisher Scientific. A172 human brain glioblastoma cell line was purchased from American Type Culture Collection (Manassas, Va.). A172 cells were grown in DMEM supplemented with 10% FBS with 100 IU/ml penicillin and 100 μg/ml streptomycin. Cultures were maintained at 37° C. in a humidified atmosphere of 5% CO2/95% air. A172 cells were seeded at 8,000 cells per well on 96-well plates. […] Cell viability was determined using a PrestoBlue Assay reagent […] according to the manufacturer's instructions. Absorption for each sample well on the plate was measured using a Cytation 3 plate reader at 560 nm and 590 nm (BioTek, Winooski, Vt.). Activity was calculated relative to 0.1% DMSO untreated control. Treatment with 0.1% DMSO alone was used as the cell viability activity control. The relative standard deviation of the DMSO control was <5%.

| Substance | ATP Levels, % Control [1] | Glucose Levels, MEAN % Control, +Insulin (H4IIE Rat Hepatoma Cells) | Glucose Levels, MEAN % Control, −Insulin (H4IIE Rat Hepatoma Cells) | Caspase 3/7 Activity, Percent of Control Activity [2] | PrestoBlue Assay, Percent of Control Activity (A172 Cells) | Glucose Levels, MEAN % Control, +Insulin (H4IIE Rat Hepatoma Cells; listed as 5) | Glucose Levels, MEAN % Control, −Insulin (H4IIE Rat Hepatoma Cells; listed as 5) |
| --- | --- | --- | --- | --- | --- | --- | --- |
| MRVIRMCLGVGLLGDLAG [SEQ ID NO: 2] | 99.6% | 79.7% | 121% | 109.3% | 100.0% |  |  |
| R(dA)IR(Nle)SLNVGLLGEL(dA) (R[dA]IR[Nle]SLNVGLLGEL[dA]) [SEQ ID NO: 15] |  | 95.2% | 94.3% |  |  |  |  |
| RVIR(Nle)CLNVGLLGEL(dA)G (RVIR[Nle]CLNVGLLGEL[dA]G) [SEQ ID NO: 6] |  | 82.5% | 109% |  |  |  |  |
| RVIR(Nle)SLNVGLEGEL(dA) (RVIR[Nle]SLNVGLEGEL[dA]) [SEQ ID NO: 14] |  | 97.8% | 104% |  |  |  |  |
| RVIR(Nle)SLNVGLLGEL(dA)G (RVIR[Nle]SLNVGLLGEL[dA]G) [SEQ ID NO: 8] |  | 63.5% | 105% |  |  |  |  |
| RVIRMCLGVGLLGDL(dA)G (RVIRMCLGVGLLGDL[dA]G) [SEQ ID NO: 4] | 104.7% | 54.3% | 119% | 112.4% | 97.7% |  |  |
| RVIRMCLGVGLLGDLAG (disulfide I:6-II:6) [SEQ ID NO: 26] |  | 21% | 114% |  |  |  |  |
| RVIRMCLGVGLLGDLAG [SEQ ID NO: 3] | 101.5% | 39.9% | 121% | 109.4% | 98.9% |  |  |
| RVIRMCLGVGLLGDLAGK{PEG12} (RVIRMCLGVGLLGDLAGK(PEG12′)) [SEQ ID NO: 17] |  | 18.8% | 105% |  |  |  |  |
| RVIRMCLGVGLLGDLAGK{PEG12} (chain 1 RVIRMCLGVGLLGDLAGK(PEG12′); chain 2 RVIRMCLGVGLLGDLAGK(PEG12′); disulfide I:6-II:6) [SEQ ID NO: 28] |  | 23.9% | 92.0% |  |  |  |  |
| RVIRMCLNNGLLGEL(dA)G (RVIRMCLNNGLLGEL[dA]G) [SEQ ID NO: 9] |  | 19.1% | 103% |  |  |  |  |
| RVIRMCLNNGLNGEL(dA)E (RVIRMCLNNGLNGEL[dA]E) [SEQ ID NO: 23] |  | 3.1% | 36% |  |  |  |  |
| RVIRMCLNVGLLGEL(dA)E (RVIRMCLNVGLLGEL[dA]E) [SEQ ID NO: 12] |  | 57.8% | 107% |  |  |  |  |
| RVIRMCLNVGLLGEL(dA)G [SEQ ID NO: 5] (RVIRMCLNVGLLGEL[dA]G) | 100.8% |  |  | 107.0% | 96.9% | 54.5% | 117% |
| RVIRMCLNVGLNGEL(dA)G (RVIRMCLNVGLNGEL[dA]G) [SEQ ID NO: 11] |  | 32.7% | 105% |  |  |  |  |
| RVIRMCLNVGNLGEL(dA)G (RVIRMCLNVGNLGEL[dA]G) [SEQ ID NO: 10] |  | 38% | 101% |  |  |  |  |
| RVIRMSLNVGLEGEL(dA) (RVIRMSLNVGLEGEL[dA]) [SEQ ID NO: 13] |  | 46.8% | 71.4% |  |  |  |  |
| RVIRMSLNVGLLGEL(dA)G (RVIRMSLNVGLLGEL[dA]G) [SEQ ID NO: 7] |  | 74.4% | 89.2% |  |  |  |  |
